What was measured:
[1] = In vivo pharmacokinetics IV and PO; parameters: species or system male cynomolgus monkeys; settings: Cyno
Procedure: The hepatocyte stability of compound IIIat was evaluated across preclinical species. Certain in vivo pharmacokinetic parameters were also evaluated. […] Male Sprague-Dawley rats, female CD-1 mice, male cynomolgus monkeys and beagle dogs were dosed intravenously with 1 mg/kg of compound IIIat prepared in 60% PEG400/10% Ethanol. Compound IIIat was administered orally (PO) at the indicated dose in 0.5% methylcellulose with 0.2% Tween 80 (MCT).

[2] = Phase I dose-escalation study, maximum tolerable dose; settings: orally once daily in cycles of 28 days
Procedure: Plasma samples for pharmacokinetic (“PK”) analysis were collected on day 1 and day 8 or day 15 of cycle 1. Fluorodeoxyglucose positron emission tomography (“FDG-PET”) was performed at baseline and on-treatment.

high-grade gliomas = assay: Phase I study, exploratory MRI; type: in vivo, human; settings: 34 patients, Ktrans, cerebral blood volume, apparent diffusion coefficient
Procedure: Thirty-four patients were evaluated by exploratory magnetic resonance imaging (“MRI”). […] The Ktrans changes were within the likely noise range of the measurement (based on variability in low-exposure cohorts).

mouse Bcrp1 = target: T1, mouse Bcrp1 (Mus musculus, UniProt Q7TMS5); assay: Transport assay in Bcrp1-MDCKII cell monolayers; type: in vitro ADME; settings: 2-hour incubation
T1 construct: host or cells: Bcrp1-MDCKII (canine kidney)
T1 sequence (Q7TMS5 whole entry): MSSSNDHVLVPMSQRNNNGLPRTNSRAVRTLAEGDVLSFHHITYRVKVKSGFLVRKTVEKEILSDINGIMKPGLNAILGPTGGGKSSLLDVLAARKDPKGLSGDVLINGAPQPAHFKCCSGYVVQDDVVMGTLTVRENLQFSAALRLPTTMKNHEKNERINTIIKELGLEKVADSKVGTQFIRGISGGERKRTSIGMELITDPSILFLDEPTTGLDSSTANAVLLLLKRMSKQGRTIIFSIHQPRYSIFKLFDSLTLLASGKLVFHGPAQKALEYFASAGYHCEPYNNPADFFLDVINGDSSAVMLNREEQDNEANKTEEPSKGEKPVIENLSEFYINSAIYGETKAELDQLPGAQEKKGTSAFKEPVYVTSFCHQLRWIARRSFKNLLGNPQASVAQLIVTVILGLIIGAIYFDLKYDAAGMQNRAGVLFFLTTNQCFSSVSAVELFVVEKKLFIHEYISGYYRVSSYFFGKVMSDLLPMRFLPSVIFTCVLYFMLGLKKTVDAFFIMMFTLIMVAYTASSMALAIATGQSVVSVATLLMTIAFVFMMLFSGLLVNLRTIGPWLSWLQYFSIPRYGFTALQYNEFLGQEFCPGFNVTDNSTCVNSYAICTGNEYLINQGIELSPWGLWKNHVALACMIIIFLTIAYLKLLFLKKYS
Procedure: MDR1-MDCKI cells were licensed from the NCI (National Cancer Institute, Bethesda, Md.) and Bcrp1-MDCKII, BCRP-MDCKII and Mdr1a-LLC-PK1 cells were obtained from the Netherlands Cancer Institute (Amsterdam. The Netherlands). […] The compound was dissolved in transport buffer consisting of Hank's balanced salt solution (HBSS) with 10 mM HEPES (Invitrogen Corporation, Grand Island, N.Y.). Lucifer Yellow (Sigma-Aldrich, St. Louis, Mo.) was used as the paracellular and monolayer integrity marker. […] The efflux ratio (ER) was calculated (Papp, B-A/Papp, A-B).

[3] = Solubility in mono- and ternary-solvent systems; type: physicochemical; settings: 50° C.
GSK3_beta = GSK3_beta (Homo sapiens, UniProt P49841); assay: biochemical; settings: read-out: % inhib
Chain of GSK3_beta (P49841 whole entry, species assumed): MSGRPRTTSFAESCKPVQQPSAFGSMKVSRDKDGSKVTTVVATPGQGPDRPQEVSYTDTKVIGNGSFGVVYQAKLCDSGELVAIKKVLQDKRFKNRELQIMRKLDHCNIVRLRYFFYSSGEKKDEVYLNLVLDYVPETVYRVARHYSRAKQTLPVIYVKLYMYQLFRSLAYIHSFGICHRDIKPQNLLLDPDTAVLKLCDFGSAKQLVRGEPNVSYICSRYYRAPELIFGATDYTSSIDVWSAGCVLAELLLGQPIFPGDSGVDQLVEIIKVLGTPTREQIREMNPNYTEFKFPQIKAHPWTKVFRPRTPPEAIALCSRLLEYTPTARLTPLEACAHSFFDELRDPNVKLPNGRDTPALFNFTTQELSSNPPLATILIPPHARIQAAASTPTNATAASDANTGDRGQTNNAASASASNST

PAK1 = PAK1 (Homo sapiens, UniProt Q13153); assay: biochemical; settings: read-out: % inhib
Chain of PAK1 (Q13153 whole entry): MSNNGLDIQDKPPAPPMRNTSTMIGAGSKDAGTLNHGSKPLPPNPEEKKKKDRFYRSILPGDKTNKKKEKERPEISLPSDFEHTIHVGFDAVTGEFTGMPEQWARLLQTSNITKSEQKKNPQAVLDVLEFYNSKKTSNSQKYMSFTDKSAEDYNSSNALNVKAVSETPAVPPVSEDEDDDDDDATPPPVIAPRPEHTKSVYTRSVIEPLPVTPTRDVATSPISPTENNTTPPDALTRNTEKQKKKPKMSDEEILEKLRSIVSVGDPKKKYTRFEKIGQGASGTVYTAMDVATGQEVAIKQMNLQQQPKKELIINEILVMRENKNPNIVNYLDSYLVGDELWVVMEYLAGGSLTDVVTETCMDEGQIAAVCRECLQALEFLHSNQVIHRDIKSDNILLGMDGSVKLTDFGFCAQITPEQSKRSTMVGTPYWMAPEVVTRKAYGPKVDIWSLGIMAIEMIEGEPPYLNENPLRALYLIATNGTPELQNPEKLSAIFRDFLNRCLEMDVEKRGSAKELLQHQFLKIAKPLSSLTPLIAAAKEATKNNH

Ron = Ron (Homo sapiens, UniProt Q04912); assay: biochemical; settings: read-out: % inhib
Chain of Ron (Q04912 25-1400, species assumed): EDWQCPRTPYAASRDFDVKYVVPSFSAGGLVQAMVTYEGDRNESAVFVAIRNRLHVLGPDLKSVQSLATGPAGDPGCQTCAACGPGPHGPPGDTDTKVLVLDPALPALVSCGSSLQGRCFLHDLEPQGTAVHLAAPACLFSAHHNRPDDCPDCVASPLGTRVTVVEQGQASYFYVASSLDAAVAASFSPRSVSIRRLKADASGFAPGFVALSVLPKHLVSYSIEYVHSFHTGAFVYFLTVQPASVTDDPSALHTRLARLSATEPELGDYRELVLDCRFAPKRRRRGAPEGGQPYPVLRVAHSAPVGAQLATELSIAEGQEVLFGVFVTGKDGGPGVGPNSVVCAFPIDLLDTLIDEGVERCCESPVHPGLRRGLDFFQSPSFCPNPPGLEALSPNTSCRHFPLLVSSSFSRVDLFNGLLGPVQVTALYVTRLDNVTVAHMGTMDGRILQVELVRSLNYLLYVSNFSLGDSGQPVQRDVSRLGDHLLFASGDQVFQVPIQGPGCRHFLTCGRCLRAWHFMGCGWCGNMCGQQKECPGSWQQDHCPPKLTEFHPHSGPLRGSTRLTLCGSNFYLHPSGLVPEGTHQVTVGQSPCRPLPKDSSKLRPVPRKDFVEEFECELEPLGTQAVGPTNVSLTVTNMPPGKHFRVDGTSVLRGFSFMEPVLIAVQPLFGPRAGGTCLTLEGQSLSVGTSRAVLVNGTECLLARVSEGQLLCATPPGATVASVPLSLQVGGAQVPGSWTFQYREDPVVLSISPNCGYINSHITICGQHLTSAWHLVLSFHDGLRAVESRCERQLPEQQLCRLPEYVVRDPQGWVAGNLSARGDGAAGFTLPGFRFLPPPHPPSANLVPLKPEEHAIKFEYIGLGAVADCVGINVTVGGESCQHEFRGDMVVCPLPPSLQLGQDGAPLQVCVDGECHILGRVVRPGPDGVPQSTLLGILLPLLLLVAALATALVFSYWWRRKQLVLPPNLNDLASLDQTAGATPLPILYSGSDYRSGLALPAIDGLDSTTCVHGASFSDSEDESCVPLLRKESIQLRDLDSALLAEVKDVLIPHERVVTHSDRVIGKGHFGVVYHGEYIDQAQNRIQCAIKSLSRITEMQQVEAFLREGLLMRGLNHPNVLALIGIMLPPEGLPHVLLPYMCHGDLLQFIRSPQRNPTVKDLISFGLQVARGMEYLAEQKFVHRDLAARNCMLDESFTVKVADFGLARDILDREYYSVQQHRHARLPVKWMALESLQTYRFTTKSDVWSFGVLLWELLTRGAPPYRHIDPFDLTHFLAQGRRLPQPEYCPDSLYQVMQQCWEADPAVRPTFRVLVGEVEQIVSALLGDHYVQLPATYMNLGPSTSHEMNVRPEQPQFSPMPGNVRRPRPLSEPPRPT

CC1(C)OCCn2c1nc1c(N3CCOCC3)nc(-c3cnc(N)nc3)nc12 [GDC-0084, 5-(6,6-dimethyl-4-morpholino-8,9-dihydro-6H-[1,4]oxazino[3,4-e]purin-2-yl)pyrimidin-2-amine]
AUC ([1]; PO 2 mg/kg in MCT): 0.11 μm·h | Cmax ([1]; PO 2 mg/kg in MCT): 0.03 μm | clearance ([1]; male, cynomolgus monkey, plasma, IV 1 mg/kg, read-out: In vivo Cl): 2.76 L/h/kg | Vd ([1]; male, cynomolgus monkey, plasma, IV 1 mg/kg, read-out: Vss): 2.9 L/kg | bioavailability ([1]; male, cynomolgus monkey, plasma, PO 2 mg/kg in MCT): 6% | MTD [2]: 45 mg | MRI derived metrics versus drug plasma exposure (high-grade gliomas): none of the MRI derived metrics (Ktrans, Cerebral blood volume, apparent diffusion coefficient) showed any significant trend with drug plasma exposure | Papp A→B at 2 h, 5 μM (mouse Bcrp1): 176 ± 21 nm/s | Solubility ([3]; DMF): 0.9 wt. % | Solubility ([3]; DMF/HOAc/H2O 67:24:9 by volume): 0.3 wt. % | Solubility ([3]; EtOH): 0.1 wt. % | Solubility ([3]; EtOH/HOAc/H2O 67:24:9 by volume): 1 wt. % | Solubility ([3]; HOAc): 2.8 wt. % | Solubility ([3]; HOAc/HOAc/H2O 67:24:9 by volume): 2.1 wt. % | Solubility ([3]; MeOH): 0.2 wt. % | Solubility ([3]; MeOH/HOAc/H2O 67:24:9 by volume): 0.4 wt. % | Solubility ([3]; MeTHF): 0.3 wt. % | Solubility ([3]; MeTHF/HOAc/H2O 67:24:9 by volume): 2.7 wt. % | Solubility ([3]; PhMe): 0.1 wt. % | Solubility ([3]; THF): 0.7 wt. % | Solubility ([3]; THF/HOAc/H2O 67:24:9 by volume): 3.7 wt. % | Solubility ([3]; Toluene/HOAc/H2O 67:24:9 by volume): 3.8 wt. % | Solubility ([3]; i-BuOH): 0.1 wt. % | Solubility ([3]; i-BuOHHOAcH2O 67:24:9 by volume): 2.1 wt. % | Solubility ([3]; n-BuOH): 0.1 wt. % | Solubility ([3]; n-BuOH/HOAc/H2O 67:24:9 by volume): 2.4 wt. % | Solubility ([3]; n-PrOH): 0.1 wt. % | Solubility ([3]; n-PrOH/HOAc/H2O 67:24:9 by volume): 1.8 wt. % | inhibition at 1 µM (GSK3_beta): 1% | inhibition at 1 µM (PAK1): 7% | inhibition at 1 µM (Ron): 8%

From patent US11643421B2, “Process for the preparation of tricyclic PI3K inhibitor compounds and methods for using the same for the treatment of cancer” (priority 2015, dated 2023)
